This note sets out measurements from patent publication US20150018311A1, “THERAPEUTIC BORON-CONTAINING COMPOUNDS” (priority 2012, published 2015).

Holding throughout (test): Growth in liquid media in presence of test compound
Holding throughout (format): cell-based

The subject of assay [1] is Staphylococcus aureus (ATCC 25923). An excerpt: (§1) Test organisms used were the bacterial strains Escherichia coli (ATCC 25922), Pseudomonas aeruginosa (ATCC 27853), Staphylococcus aureus (ATCC 25923), Streptococcus pyogenes (ATCC 19615), and Mycobacterium tuberculosis (H37Rv), and the yeast strain Candida albicans (ATCC 90028).
(§2) The liquid media used for growth were Luria-Bertani (Becton Dickinson, Sparks, Md.) and Mueller-Hinton (bio-Merieux, Paris, France) broths, but with Saburo medium for Candida and Middlebrook 7H9 medium (Difco) for mycobacteria.
(§3) The strains were grown at 37° C. and after suitable cell concentrations had been reached, 100 μL of each cell suspension was added to a tube with growth media and test compound. Cultivation of the bacteria was then carried out in the presence of each test compound at 37° C. and the tubes examined for visible growth. The compounds were tested at concentrations of either 500 mg/l, 50 mg/l or 5 mg/l. This assay was repeated twice.
(§4) Some compounds were only tested against some test organisms. It will be appreciated that the charge of these molecules will depend on the environment, some of the Examples are shown with a suitable counter ion, some without.

Assay [2] relates to Candida albicans (ATCC 90028).
Excerpt: as §1, §2, §3, §4

Assay [3] deals with Escherichia coli (ATCC 25922).
Excerpt: as §1, §2, §3, §4

The test system of assay [4] is Streptococcus pyogenes (ATCC 19615).
Excerpt: as §1, §2, §3, §4

The subject of assay [5] is Mycobacterium tuberculosis (H37Rv).
The test system of assay [6] is Pseudomonas aeruginosa (ATCC 27853).
Excerpt: as §1, §2, §3, §4

With `CC1(C)C2CC3OB(CC(Cc4ccccc4)NC(=O)C(N)CCCNC(=N)N)OC3(C)C1C2` (stereo not drawn) [Compound 4], the “Growth in the presence of test compound, S. aureus” value (from here on “Growth in the presence … S. aureus”) in assay [1] (5 mg/L) is on record as “+”; in assay [1] (50 mg/L), “+”; in assay [1] (500 mg/L), “−”. For the same compound, the “Growth in the presence of test compound, C. albicans” value (from here on “Growth in the presence … C. albicans”) in assay [2] (5 mg/L) is on record as “+”; in assay [2] (50 mg/L), “+”; in assay [2] (500 mg/L), “−”. Further, the “Growth in the presence of test compound, E. coli” value (“Growth in the presence … E. coli” below) in assay [3] (5 mg/L) is recorded as “+”; in assay [3] (50 mg/L) it was “+”; in assay [3] (500 mg/L), “−”. Also, the “Growth in the presence of test compound, S. pyogenes” value (“Growth in the presence … S. pyogenes” for short) in assay [4] (5 mg/L) is listed as “+”; in assay [4] (50 mg/L), “+”; in assay [4] (500 mg/L) it was “−”. For the same compound, the “Growth in the presence of test compound, M. tuberculosis” value (“Growth … M. tuberculosis” below) in assay [5] (5 mg/L) is “+”; in assay [5] (50 mg/L), “−”; in assay [5] (500 mg/L) it was “−”.
Regarding `CC1(C)C2CC3OB(CC(CCc4ccccc4)NC(=O)C(N)CCCCN)OC3(C)C1C2` (stereo not drawn) [Compound 7], the entries for the “Growth in the presence of test compound, P. aeruginosa” value (shortened to “Growth … P. aeruginosa”) in assay [6] (5 mg/L), in assay [6] (50 mg/L) and in assay [6] (500 mg/L) were “+”, “+” and “±”, respectively. In addition, the figures for the “Growth in the presence … S. aureus” value in assay [1] (5 mg/L), in assay [1] (50 mg/L) and in assay [1] (500 mg/L) were “+”, “+” and “−”, respectively. Further, the “Growth in the presence … C. albicans” value is “+” in assay [2] (5 mg/L), “+” in assay [2] (50 mg/L) and “−” in assay [2] (500 mg/L). Besides, the “Growth in the presence … E. coli” value is “+” in assay [3] (5 mg/L), “+” in assay [3] (50 mg/L) and “−” in assay [3] (500 mg/L). In addition, the “Growth in the presence … S. pyogenes” value in assay [4] (5 mg/L) is given as “+”; in assay [4] (50 mg/L), “+”; in assay [4] (500 mg/L), “−”. In addition, the results for the “Growth … M. tuberculosis” value in assay [5] (5 mg/L), in assay [5] (50 mg/L) and in assay [5] (500 mg/L) were “+”, “+” and “−”, respectively.
In the case of `CC1(C)C2CC3OB([C@@H](CNC(=O)[C@@H](N)CCCCN)Cc4ccccc4)O[C@]3(C)C1C2` (stereo partly drawn) [Compound 9], the “Growth … P. aeruginosa” value is on record as “+” in assay [6] (5 mg/L), “+” in assay [6] (50 mg/L) and “±” in assay [6] (500 mg/L). Moreover, the figures for the “Growth in the presence … S. aureus” value in assay [1] (5 mg/L), in assay [1] (50 mg/L) and in assay [1] (500 mg/L) were “+”, “+” and “−”, respectively. Further, the “Growth in the presence … C. albicans” value in assay [2] (5 mg/L) is “+”; in assay [2] (50 mg/L) it was “+”; in assay [2] (500 mg/L) it was “−”. For the same compound, the “Growth in the presence … S. pyogenes” value in assay [4] (5 mg/L) is reported as “+”; in assay [4] (50 mg/L) it was “+”; in assay [4] (500 mg/L) it was “−”. The “Growth … M. tuberculosis” value in assay [5] (5 mg/L), in assay [5] (50 mg/L) and in assay [5] (500 mg/L) was “−” each time.
For `CC1(C)C2CC3OB([C@@H](CNC(=O)[C@@H](N)CCCNC(=N)N)Cc4ccccc4)O[C@]3(C)C1C2` (stereo partly drawn) [Compound 11], the entries for the “Growth … P. aeruginosa” value in assay [6] (5 mg/L), in assay [6] (50 mg/L) and in assay [6] (500 mg/L) were “+”, “+” and “−”, respectively. The “Growth in the presence … S. aureus” value in assay [1] (5 mg/L) was “+”; in assay [1] (50 mg/L), “+”; in assay [1] (500 mg/L), “−”. Besides, the “Growth in the presence … C. albicans” value was “+” in assay [2] (5 mg/L), “+” in assay [2] (50 mg/L) and “−” in assay [2] (500 mg/L). Also, the “Growth in the presence … E. coli” value in assay [3] (5 mg/L) was “+”; in assay [3] (50 mg/L) it was “+”; in assay [3] (500 mg/L), “−”. In addition, the “Growth in the presence … S. pyogenes” value in assay [4] (5 mg/L) is “+”; in assay [4] (50 mg/L), “+”; in assay [4] (500 mg/L) it was “−”. The “Growth … M. tuberculosis” value is listed as “±” in assay [5] (5 mg/L), “−” in assay [5] (50 mg/L) and “−” in assay [5] (500 mg/L).
`CC1(C)C2CC3OB([C@@H](CNC(=O)[C@H](N)CCCCN)Cc4ccccc4)O[C@]3(C)C1C2` (stereo partly drawn) [Compound 12]: the “Growth … P. aeruginosa” value is given as “+” in assay [6] (5 mg/L), “+” in assay [6] (50 mg/L) and “±” in assay [6] (500 mg/L). Moreover, the “Growth in the presence … S. aureus” value is “+” in assay [1] (5 mg/L), “+” in assay [1] (50 mg/L) and “±” in assay [1] (500 mg/L). Moreover, the “Growth in the presence … C. albicans” value in assay [2] (5 mg/L) is listed as “+”; in assay [2] (50 mg/L) it was “+”; in assay [2] (500 mg/L), “−”. For the same compound, the “Growth in the presence … E. coli” value is reported as “+” in assay [3] (5 mg/L), “+” in assay [3] (50 mg/L) and “−” in assay [3] (500 mg/L). The “Growth in the presence … S. pyogenes” value is given as “+” in assay [4] (5 mg/L), “+” in assay [4] (50 mg/L) and “−” in assay [4] (500 mg/L). The “Growth … M. tuberculosis” value in assay [5] (5 mg/L) is reported as “±”; in assay [5] (50 mg/L), “−”; in assay [5] (500 mg/L) it was “−”.
As for `CC1(C)C2CC3OB(C(CNC(=O)C(N)CCCCN)Cc4ccccc4)OC3(C)C1C2` (stereo not drawn) [Compound 13], the “Growth … P. aeruginosa” value in assay [6] (5 mg/L) was “+”; in assay [6] (50 mg/L), “+”; in assay [6] (500 mg/L), “−”. In addition, the “Growth in the presence … S. aureus” value in assay [1] (5 mg/L) is listed as “+”; in assay [1] (50 mg/L), “+”; in assay [1] (500 mg/L), “−”. In addition, the “Growth in the presence … C. albicans” value in assay [2] (5 mg/L) is “+”; in assay [2] (50 mg/L) it was “+”; in assay [2] (500 mg/L), “−”. Besides, the “Growth in the presence … E. coli” value in assay [3] (5 mg/L) is given as “+”; in assay [3] (50 mg/L), “+”; in assay [3] (500 mg/L), “−”. Besides, the “Growth in the presence … S. pyogenes” value in assay [4] (5 mg/L) is on record as “+”; in assay [4] (50 mg/L) it was “+”; in assay [4] (500 mg/L), “−”. For the same compound, the “Growth … M. tuberculosis” value is listed as “+” in assay [5] (5 mg/L), “−” in assay [5] (50 mg/L) and “−” in assay [5] (500 mg/L).
As to `CC1(C)C2CC3OB([C@H](CNC(=O)[C@@H](N)Cc4ccccc4)Cc4ccccc4)O[C@@]3(C)C1C2` (stereo partly drawn) [Compound 14], the figures for the “Growth … P. aeruginosa” value in assay [6] (5 mg/L), in assay [6] (50 mg/L) and in assay [6] (500 mg/L) were “+”, “+” and “−”, respectively. Also, the “Growth in the presence … S. aureus” value in assay [1] (5 mg/L), in assay [1] (50 mg/L) and in assay [1] (500 mg/L) was “+” throughout. Further, the results for the “Growth in the presence … C. albicans” value in assay [2] (5 mg/L), in assay [2] (50 mg/L) and in assay [2] (500 mg/L) were “+”, “±” and “±”, respectively. For the same compound, the “Growth in the presence … E. coli” value in assay [3] (5 mg/L), in assay [3] (50 mg/L) and in assay [3] (500 mg/L) was “+” throughout. In addition, the entries for the “Growth in the presence … S. pyogenes” value in assay [4] (5 mg/L), in assay [4] (50 mg/L) and in assay [4] (500 mg/L) were “+”, “+” and “±”, respectively. For the same compound, the “Growth … M. tuberculosis” value in assay [5] (5 mg/L) is reported as “+”; in assay [5] (50 mg/L), “−”; in assay [5] (500 mg/L), “−”.
For `C[C@@H](B1OC2CC3CC(C3(C)C)[C@@]2(C)O1)[C@@H](Cc1ccccc1)NC(=O)[C@@H]1CCCN1` (stereo partly drawn) [Compound 29], the figures for the “Growth … P. aeruginosa” value in assay [6] (5 mg/L), in assay [6] (50 mg/L) and in assay [6] (500 mg/L) were “+”, “+” and “±”, respectively. Moreover, the “Growth in the presence … S. aureus” value in assay [1] (5 mg/L) was “+”; in assay [1] (50 mg/L), “+”; in assay [1] (500 mg/L), “−”. The “Growth in the presence … C. albicans” value in assay [2] (5 mg/L) is on record as “+”; in assay [2] (50 mg/L), “+”; in assay [2] (500 mg/L), “±”. For the same compound, the entries for the “Growth in the presence … S. pyogenes” value in assay [4] (5 mg/L), in assay [4] (50 mg/L) and in assay [4] (500 mg/L) were “+”, “+” and “−”, respectively. The “Growth … M. tuberculosis” value is listed as “+” in assay [5] (5 mg/L), “+” in assay [5] (50 mg/L) and “−” in assay [5] (500 mg/L).
